Source: US8691761B2, “Somatostatin receptor 2 antagonists” (priority 2006, dated 2014)
Entries after “also recorded” stand apart in the source; their conditions may differ. Like-named read-outs stand apart in the source and are kept apart here. Bridge positions count the residues as written; N and C are the ends. Square brackets hold non-standard residues; d marks the D form. Peptide text beside a SMILES is read from it. * marks the point of attachment. ξ: configuration not given here. DOTA = O=C(O)CN1CCN(CC(=O)O)CCN(CC(=O)*)CCN(CC(=O)O)CC1; dPhe(4-NHCONH2) = NC(=O)Nc1ccc(C[C@@H](N)C(=O)O)cc1; Phe(4-NHCONH2) = NC(=O)Nc1ccc(C[C@H](N)C(=O)O)cc1; Phe(4-Cl) = N[C@@H](Cc1ccc(Cl)cc1)C(=O)O; ξDihydroorotoyl = O=C1CC(C(=O)*)NC(=O)N1; 2Nal = N[C@@H](Cc1ccc2ccccc2c1)C(=O)O; ξPhe(4-NH2) = Nc1ccc(CC(N)C(=O)O)cc1

How the values were obtained:
[1] = in vivo; details: female, athymic nude, mouse, iv, total radioactivity, biodistribution
Protocol: (§8) The following protocol was used to determine biodistribution
(§9) Confirmation that the transfected tumors were indeed expressing solely sst2 was obtained in resected tumor samples tested in vitro with somatostatin receptor autoradiography using subtype selective ligands.
(§10) The biodistribution of was studied at 4 h or 24 h after injection. The organs of interest were collected, blotted dry, weighed, their radioactivity measured and the percentage of injected activity per gram (% IA/g) calculated.

[2] = tested on: HEK-sst2 tumors; details: mouse, in vivo
Protocol: as §8, §9, §10

[3] = molecular target: T1, hSSTR2 (Homo sapiens, UniProt P30874); assay: Receptor autoradiography, displacement of 125I-[Leu8,D-Trp22,Tyr25]-SRIF-28 from membrane pellet sections; format: binding
T1 construct: expressed in transfected cells; host or cells: CHO-K1 or CCL39 cells
Protocol: (§1) Generally, recombinant cells expressing the receptor are washed and homogenized to prepare a crude protein homogenate in a suitable buffer. In a typical assay, an amount of protein from the cell homogenate is placed into a small volume of an appropriate assay buffer at an appropriate pH. Candidate substances, such as potential SRIF agonists and antagonists, are added to the admixture in convenient concentrations, and the interaction between the candidate substance and the receptor polypeptide is monitored.
(§2) In vitro Bioassay: The effects of the various somatostatin analogs were tested in vitro for their ability to bind to isolated cloned receptors expressed on CHO-K1 cells and CCL39 cells. The molecular cloning of the genes encoding multiple somatostatin receptor subtypes permitted the individual expression of these receptors in mammalian cells and the characterization of their respective pharmacological profiles.
(§3) CHO-K1 cells were grown in Ham's F-12 medium, and CCL39 cells were grown in Dulbecco's modified Eagle's medium/Ham's F-12(1:1) mix, supplemented with 10% fetal bovine serum, 100 U/ml penicillin and 100 μg/ml streptomycin, in humidified air containing 5% CO2 at 37° C. Cells were washed twice with and scraped into ice-cold 0.05 M Tris-HCl (pH 7.4), collected by centrifugation, and homogenized using a rotor/stator/system in the same buffer. After centrifugation at 120 g for 5 min at 4° C., the supernatant was collected and centrifuged again at 48,000 g for 30 min at 4° C. The resulting pellet was resuspended in ice-cold Tris buffer, transferred into a microfuge tube, and centrifuged at 20,000 g for 15 min at 4° C. After withdrawal of the supernatant, the membrane pellet was stored at −80° C.
(§4) Receptor autoradiography was performed on 20 μm thick cryostat sections of the membrane pellets, mounted on microscope slides, and then stored at −20° C. […] Increasing concentrations of the unlabeled peptide were used ranging from 0.1-1000 nM. […] IC50 values were calculated after quantification of the data using a computer-assisted image processing system as known in this art.
(§5) The numbers in parentheses indicate the number of times the particular binding test was carried out.
(§6) Receptor autoradiography. Cell membrane pellets were prepared as previously described, and stored at −80° C. Receptor autoradiography was performed on 20-μm thick cryostat (Microm HM 500, Walldorf, Germany) sections of the membrane pellets, mounted on microscope slides, and then stored at −20° C. […] After a brief dip in distilled water to remove excess salts, the sections were dried quickly and exposed for 1 week to Kodak BioMax MR film. IC50 values were calculated after quantification of the data using a computer-assisted image processing system as described previously. […] (Reubi, J. C. “In vitro identification of vasoactive intestinal peptide receptors in human tumors: Implications for tumor imaging.” J. Nucl. Med. 1995, 36, 1846-1853).
(§7) To investigate their ssts binding properties, the peptides were tested for their ability to bind to cryostat sections from membrane pellets of cells expressing the five human ssts (Table 3).

[4] = molecular target: T2, human sst2A receptor (Homo sapiens, UniProt P30874); assay: Immunofluorescence-based sst2 internalization assay in HEK-sst2 cells; format: cell-based; details: n ≧ 2
T2 construct: expressed in transfected cells; host or cells: HEK293 (HEK-sst2)
Protocol: Immunofluorescence-based sst2 Internalization Assay. Immunofluorescence microscopy-based internalization assay for sst2 was performed with HEK-sst2 using the sst2-specific antibody R2-88 as described elsewhere herein. HEK-sst2 cells were treated either with vehicle alone, the sst2 agonist [Tyr^3]-octreotide at a concentration of 100 nM, [Tyr^3]-octreotide at a concentration of 100 nM in the presence of an excess of the SRIF analogues to be tested (100 times the concentration of [Tyr^3]-octreotide), or with the SRIF analogues to be tested alone at a concentration of 10 μM, and then processed for immunofluorescence microscopy as described previously.

[5] = molecular target: sst2 (Homo sapiens, UniProt P30874); assay: Calcium release assay in HEK-sst2 cells (Fluo-4NW); format: cell-based; set-up: expressed in transfected cells; host or cells: HEK293 (HEK-sst2); details: n ≧ 2
Protocol: Calcium release assay. Intracellular calcium release was measured in HEK-sst2 using the Fluo-4NW Calcium Assay kit as described previously (Magrys, et al. “The role of anti-alpha-enolase autoantibodies in pathogenicity of autoimmune-mediated retinopathy.” J. Clin. Immunol. 2007, 27, 181-192; Michel et al. “The Nef protein of human immunodeficiency virus is a broad-spectrum modulator of chemokine receptor cell surface levels that acts independently of classical motifs for receptor endocytosis and Galphai signaling.” Mol. Biol. Cell. 2006, 17, 3578-3590). In brief, HEK-sst2 cells were seeded (25,000 cells per well) in poly-D-lysine (20 μg/mL) coated 96 well plates and cultured for 1 day at 37° C. and 5% CO2 in culture medium. At the day of the experiment, the cells were washed with assay buffer (1×HBSS, 20 mM HEPES) containing 2.5 mM probenecid, and then loaded with 100 μL/well Fluo-4NW dye in assay buffer containing 2.5 mM probenecid for 30 min at 37° C. and 5% CO2 and then for further 30 min at room temperature. To measure the intracellular calcium mobilization after stimulation with the SRIF analogues to be tested, the dye-loaded cells were transferred to a SpectraMax M2^e (Molecular Devices, Sunnyvale, Calif.). Intracellular calcium mobilization was recorded in a kinetic for 60 sec at room temperature monitoring fluorescence emission at 520 nm (with λex=485 nm) in the presence of the analogues at the concentrations indicated. Maximum fluorescence (Fmax) was measured after the addition of 25 μM ionomycin. Baseline (control) measurements were taken for dye-loaded, untreated cells. Data are shown as percentage of Fmax (% Fmax) as reported previously. (Magrys, et al. J. Clin. Immunol. 2007, 27, 181-192; Michel et al. Mol. Biol. Cell. 2006, 17, 3578-3590). All experiments were repeated at least three times in triplicate.

[6] = molecular target: T3, hSSTR4 (Homo sapiens, UniProt P31391); assay: Receptor autoradiography, displacement of 125I-[Leu8,D-Trp22,Tyr25]-SRIF-28 from membrane pellet sections; format: binding
T3 construct: expressed in transfected cells; host or cells: CHO-K1 or CCL39 cells
Protocol: as §1, §2, §3, §4, §5, §6, §7

[7] = molecular target: T4, hSSTR5 (Homo sapiens, UniProt P35346); assay: as above; format: binding
T4 construct: expressed in transfected cells; host or cells: CHO-K1 or CCL39 cells
Protocol: as §1, §2, §3, §4, §5, §6, §7

[8] = molecular target: T5, hSSTR1 (Homo sapiens, UniProt P30872); assay: as above; format: binding
T5 construct: expressed in transfected cells; host or cells: CHO-K1 or CCL39 cells
Protocol: as §1, §2, §3, §4, §5, §6, §7

[9] = molecular target: T6, hSSTR3 (Homo sapiens, UniProt P32745); assay: as above; format: binding
T6 construct: expressed in transfected cells; host or cells: CHO-K1 or CCL39 cells
Protocol: as §1, §2, §3, §4, §5, §6, §7

[10] = Table 3, mean ± SEM when N ≧ 3, read-out: sst4 binding affinity (IC50)
[11] = Table 3, mean ± SEM when N ≧ 3, read-out: sst5 binding affinity (IC50)
[12] = Table 3, mean ± SEM when N ≧ 3, read-out: sst2 binding affinity (IC50)
[13] = Table 3, mean ± SEM when N ≧ 3, read-out: sst1 binding affinity (IC50)
[14] = Table 3, mean ± SEM when N ≧ 3, read-out: sst3 binding affinity (IC50)

T1 sequence (P30874 whole entry): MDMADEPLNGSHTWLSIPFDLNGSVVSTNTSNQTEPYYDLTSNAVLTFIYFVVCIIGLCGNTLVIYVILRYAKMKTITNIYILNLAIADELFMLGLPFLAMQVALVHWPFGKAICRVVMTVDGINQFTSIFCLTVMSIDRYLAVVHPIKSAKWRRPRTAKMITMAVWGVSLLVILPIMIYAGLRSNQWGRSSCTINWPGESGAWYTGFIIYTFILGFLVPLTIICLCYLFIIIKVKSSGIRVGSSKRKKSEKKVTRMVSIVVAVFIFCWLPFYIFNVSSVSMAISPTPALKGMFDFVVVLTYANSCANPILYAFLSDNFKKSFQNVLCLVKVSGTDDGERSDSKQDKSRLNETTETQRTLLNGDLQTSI
T2 sequence (P30874 whole entry): as above
sst2, sequence (P30874 whole entry): as above
T4 sequence (P35346 whole entry): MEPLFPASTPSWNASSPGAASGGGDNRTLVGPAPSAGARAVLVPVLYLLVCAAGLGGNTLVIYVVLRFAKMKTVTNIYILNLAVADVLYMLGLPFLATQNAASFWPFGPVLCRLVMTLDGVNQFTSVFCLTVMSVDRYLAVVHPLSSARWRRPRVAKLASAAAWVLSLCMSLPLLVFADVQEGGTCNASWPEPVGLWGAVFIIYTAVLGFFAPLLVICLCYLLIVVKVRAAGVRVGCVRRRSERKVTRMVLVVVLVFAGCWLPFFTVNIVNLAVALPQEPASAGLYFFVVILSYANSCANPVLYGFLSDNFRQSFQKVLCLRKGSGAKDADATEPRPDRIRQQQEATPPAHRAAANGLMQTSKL
T5 sequence (P30872 whole entry): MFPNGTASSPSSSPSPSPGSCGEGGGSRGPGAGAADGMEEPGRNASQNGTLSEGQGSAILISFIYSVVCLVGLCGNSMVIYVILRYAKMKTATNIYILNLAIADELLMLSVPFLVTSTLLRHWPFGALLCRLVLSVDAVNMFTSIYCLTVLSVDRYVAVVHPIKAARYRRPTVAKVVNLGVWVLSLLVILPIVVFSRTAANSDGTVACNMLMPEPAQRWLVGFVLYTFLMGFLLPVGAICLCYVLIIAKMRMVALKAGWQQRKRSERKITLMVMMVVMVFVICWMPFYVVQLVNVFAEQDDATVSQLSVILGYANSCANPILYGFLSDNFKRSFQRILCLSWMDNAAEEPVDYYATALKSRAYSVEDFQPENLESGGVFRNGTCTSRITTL
T3 sequence (P31391 whole entry): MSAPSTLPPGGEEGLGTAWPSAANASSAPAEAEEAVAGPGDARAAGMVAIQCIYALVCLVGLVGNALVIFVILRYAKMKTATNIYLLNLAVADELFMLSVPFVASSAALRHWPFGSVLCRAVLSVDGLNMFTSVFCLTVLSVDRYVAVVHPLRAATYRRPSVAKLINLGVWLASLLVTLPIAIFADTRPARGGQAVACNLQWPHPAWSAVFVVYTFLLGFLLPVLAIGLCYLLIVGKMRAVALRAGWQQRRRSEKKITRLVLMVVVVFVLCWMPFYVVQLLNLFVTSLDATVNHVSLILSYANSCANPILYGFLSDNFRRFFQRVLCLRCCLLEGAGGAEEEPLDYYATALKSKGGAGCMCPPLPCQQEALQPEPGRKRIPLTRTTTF
T6 sequence (P32745 whole entry): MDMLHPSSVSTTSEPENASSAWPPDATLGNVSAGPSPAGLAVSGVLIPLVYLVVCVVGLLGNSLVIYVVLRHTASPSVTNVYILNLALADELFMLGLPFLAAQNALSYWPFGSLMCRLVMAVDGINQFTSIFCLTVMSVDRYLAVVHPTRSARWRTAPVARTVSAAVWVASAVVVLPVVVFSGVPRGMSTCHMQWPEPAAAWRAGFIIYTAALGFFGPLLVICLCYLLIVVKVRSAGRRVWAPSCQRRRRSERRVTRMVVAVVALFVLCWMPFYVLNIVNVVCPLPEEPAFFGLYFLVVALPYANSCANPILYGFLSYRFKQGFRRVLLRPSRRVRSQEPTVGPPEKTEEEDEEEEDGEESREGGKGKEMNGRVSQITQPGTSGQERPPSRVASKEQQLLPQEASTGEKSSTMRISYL

Row | Compound | sst2-internalization tested in vitro in HEK-sst2 cells (function) [4] | Calcium release tested in vitro in HEK-sst2 cells (function) [5] | IC50 [6, 10] [nM] | IC50 [7, 11] [nM] | IC50 [3, 12] [nM] | IC50 [8, 13] [nM] | IC50 [9, 14] [nM] | further results
1 | C[C@@H](O)[C@@H]1NC(=O)[C@H](CCCCN)NC(=O)[C@@H](Cc2ccc(NC(N)=O)cc2)NC(=O)[C@H](Cc2ccc(O)cc2)NC(=O)[C@H](NC(=O)[C@H](Cc2ccc(Cl)cc2)NC(=O)CN2CCN(CC(=O)O)CCN(CC(=O)O)CCN(CC(=O)O)CC2)CSSC[C@@H](C(=O)N[C@@H](Cc2ccc3ccccc3c2)C(N)=O)NC1=O [^111In-labelled Peptide No. 28, metal not drawn] ({DOTA}-[Phe(4-Cl)][dC]Y[dPhe(4-NHCONH2)]KTC[2Nal]-NH2; disulfide 2-7) | – | – | – | – | – | – | – | tissue uptake at 4 h ([1]; adrenal): 0.21 %ID/g; tissue uptake at 4 h ([1]; blood): 0.19 %ID/g; tissue uptake at 4 h ([1]; bone): 0.16 %ID/g; tissue uptake at 4 h ([1]; heart): 0.12 %ID/g; tissue uptake at 4 h ([1]; liver): 0.88 %ID/g; tissue uptake at 4 h ([1]; muscle): 0.06 %ID/g; tissue uptake at 4 h ([1]; pancreas): 2.41 %ID/g; tissue uptake at 4 h ([1]; pituitary): 0.21 %ID/g; tissue uptake at 4 h ([1]; sst2 tumor): 2.36 %ID/g; biodistribution, kidney ([2]; female, athymic nude, iv, 4 h): 6.95 % IA/g; biodistribution, spleen ([2]; female, athymic nude, iv, 4 h): 0.36 % IA/g
2 | C[C@@H](O)[C@@H]1NC(=O)[C@H](CCCCN)NC(=O)[C@@H](Cc2ccc(NC(N)=O)cc2)NC(=O)C(Cc2ccc(NC(=O)C3CC(=O)NC(=O)N3)cc2)NC(=O)[C@H](NC(=O)[C@H](Cc2ccc(Cl)cc2)NC(=O)CN2CCN(CC(=O)O)CCN(CC(=O)O)CCN(CC(=O)O)CC2)CSSC[C@@H](C(=O)N[C@H](Cc2ccc(O)cc2)C(N)=O)NC1=O (stereo partly drawn) [Peptide No. 31, DOTA-Cpa-c[DCys-Aph(Hor)-DAph(Cbm)-Lys-Thr-Cys]-DTyr-NH2] ({DOTA}-[Phe(4-Cl)][dC][ξPhe(4-NH2)](ξDihydroorotoyl)[dPhe(4-NHCONH2)]KTC[dY]-NH2; disulfide 2-7) | antagonistic property; also recorded: Antagonist | Antagonist | – | – | – | – | – | sst2 binding affinity relative to SRIF-28 [3]: three to four-fold greater; tumor to kidney ratio (in words) [2]: excellent tumor to kidney ratio
3 | C[C@@H](O)[C@@H]1NC(=O)[C@H](CCCCN)NC(=O)[C@@H](Cc2c[nH]c3ccccc23)NC(=O)[C@H](Cc2ccc(NC(N)=O)cc2)NC(=O)[C@H](NC(=O)[C@H](Cc2ccc(Cl)cc2)NC(=O)CN2CCN(CC(=O)O)CCN(CC(=O)O)CCN(CC(=O)O)CC2)CSSC[C@@H](C(=O)N[C@@H](Cc2ccc3ccccc3c2)C(N)=O)NC1=O [Peptide No. 14, DOTA-Cpa-c[DCys-Aph(Cbm)-DTrp-Lys-Thr-Cys]-2Nal-NH2] | Antagonist | Antagonist | 831 ± 82 | > 1000 | 9.8 ± 1.2 | > 1000 | 972 ± 212 | IC50 ([6]; Table 1, inhibition of radioligand binding to cloned human receptor, read-out: IC50 hSSTR4): 816 ± 114 nM; IC50 ([7]; Table 1, inhibition of radioligand binding to cloned human receptor, read-out: IC50 hSSTR5): > 1000 nM; IC50 ([3]; Table 1, inhibition of radioligand binding to cloned human receptor, read-out: IC50 hSSTR2): 9.4 ± 1.6 nM; IC50 ([8]; Table 1, inhibition of radioligand binding to cloned human receptor, read-out: IC50 hSSTR1): > 1000 nM; IC50 ([9]; Table 1, inhibition of radioligand binding to cloned human receptor, read-out: IC50 hSSTR3): > 1000 nM

Further lines, with some results ahead:

Row | sst2-internalization tested in vitro in HEK-sst2 cells (function) [4] | Calcium release tested in vitro in HEK-sst2 cells (function) [5] | IC50 [6, 10] [nM] | IC50 [7, 11] [nM] | IC50 [3, 12] [nM] | IC50 [8, 13] [nM] | IC50 [9, 14] [nM] | Compound | further results
4 | Antagonist | Antagonist | > 1000 | 461 ± 106 | 5.9 ± 1.8 | > 1000 | 138 ± 52 | C[C@@H](O)[C@@H]1NC(=O)[C@H](CCCCN)NC(=O)[C@@H](Cc2c[nH]c3ccccc23)NC(=O)[C@H](Cc2ccc(NC(N)=O)cc2)NC(=O)[C@H](NC(=O)[C@@H](N)Cc2ccc(Cl)cc2)CSSC[C@@H](C(N)=O)NC1=O [compound 17, H2N-Cpa-c[DCys-Aph(Cbm)-DTrp-Lys-Thr-Cys]-NH2] (H-[Phe(4-Cl)][dC][Phe(4-NHCONH2)][dW]KTC-NH2; disulfide 2-7) | –
5 | Antagonist | Antagonist | > 1000 | > 1000 | 46 ± 13 | > 1000 | 124 ± 53 | C[C@@H](O)[C@@H]1NC(=O)[C@H](CCCCN)NC(=O)[C@@H](Cc2c[nH]c3ccccc23)NC(=O)[C@H](Cc2ccc(NC(N)=O)cc2)NC(=O)[C@H](NC(=O)[C@H](Cc2ccc(Cl)cc2)NC(=O)CCNC(=O)CN2CCN(CC(=O)O)CCN(CC(=O)O)CCN(CC(=O)O)CC2)CSSC[C@@H](C(=O)N[C@@H](Cc2ccc3ccccc3c2)C(N)=O)NC1=O [compound 15, DOTA-βAla-Cpa-c[DCys-Aph(Cbm)-DTrp-Lys-Thr-Cys]-2Nal-NH2] | –
